Molecules are shown by their SMILES.

The target of the assay is ΔF508-CFTR (Homo sapiens, UniProt P13569, DEL508-508). As to the kind of experiment: YFP quenching assay of VX-809-mediated rescue in A549 cells expressing ΔF508-CFTR. The class given is cell-based. As to conditions: 48 h, combined with 5 μM VX-809, 10 μM CP7q or 5 μM VX-770, vs VX-809 alone. Set-up: expressed in transfected cells; host or cells: Fisher rat thyroid (FRT) cells, co-expressing halide sensor YFP-H148Q/I152L; provided by Dr. Alan Verkman. As to the method: Fisher rat thyroid (FRT) cells expressing human wild type-, ΔF508- and G551D-CFTR with a halide sensor YFP-H148Q/I152L were generously provided by Dr. Alan Verkman (University of California, San Francisco) and grown in F-12 Modified Coon´s medium supplemented with 10% FBS, 2 mM glutamine, 100 units/ml penicillin and 100 μg/ml streptomycin [30]. A549 cells were obtained from Korean Cell Line Bank (Seoul, Korea) and the cells were stably transfected with human ΔF508-CFTR and the halide sensor YFP-H148Q/I152L/F46L, and maintained in RPMI-1640 medium containing 10% fetal bovine serum (FBS), 100 units/ml penicillin and 100 μg/ml streptomycin. […]
FRT cells expressing wild type- or ΔF508-CFTR with the halide sensor YFP-H148Q/I152L were plated in 96-well black-walled microplates (Corning Inc., Corning, NY) at a density of 2 x10^4cells per well. […] Assays were done using FLUO star Omega microplate reader (BMG Labtech, Ortenberg, Germany) and MARS Data Analysis Software (BMG Labtech). […] After 10 min, 96-well plates were transferred to the microplate reader preheated to 37°C for fluorescence assay. Each well was assayed individually for CFTR-mediated I^- influx by recording fluorescence continuously (200 ms per point) for 2 s (baseline), then 100 μL of 140 mM I^- solution was added at 2 s and then YFP fluorescence was recorded for 14 s. […]

ΔF508-CFTR, sequence (P13569 with tags, fused parts or gaps DEL508-508): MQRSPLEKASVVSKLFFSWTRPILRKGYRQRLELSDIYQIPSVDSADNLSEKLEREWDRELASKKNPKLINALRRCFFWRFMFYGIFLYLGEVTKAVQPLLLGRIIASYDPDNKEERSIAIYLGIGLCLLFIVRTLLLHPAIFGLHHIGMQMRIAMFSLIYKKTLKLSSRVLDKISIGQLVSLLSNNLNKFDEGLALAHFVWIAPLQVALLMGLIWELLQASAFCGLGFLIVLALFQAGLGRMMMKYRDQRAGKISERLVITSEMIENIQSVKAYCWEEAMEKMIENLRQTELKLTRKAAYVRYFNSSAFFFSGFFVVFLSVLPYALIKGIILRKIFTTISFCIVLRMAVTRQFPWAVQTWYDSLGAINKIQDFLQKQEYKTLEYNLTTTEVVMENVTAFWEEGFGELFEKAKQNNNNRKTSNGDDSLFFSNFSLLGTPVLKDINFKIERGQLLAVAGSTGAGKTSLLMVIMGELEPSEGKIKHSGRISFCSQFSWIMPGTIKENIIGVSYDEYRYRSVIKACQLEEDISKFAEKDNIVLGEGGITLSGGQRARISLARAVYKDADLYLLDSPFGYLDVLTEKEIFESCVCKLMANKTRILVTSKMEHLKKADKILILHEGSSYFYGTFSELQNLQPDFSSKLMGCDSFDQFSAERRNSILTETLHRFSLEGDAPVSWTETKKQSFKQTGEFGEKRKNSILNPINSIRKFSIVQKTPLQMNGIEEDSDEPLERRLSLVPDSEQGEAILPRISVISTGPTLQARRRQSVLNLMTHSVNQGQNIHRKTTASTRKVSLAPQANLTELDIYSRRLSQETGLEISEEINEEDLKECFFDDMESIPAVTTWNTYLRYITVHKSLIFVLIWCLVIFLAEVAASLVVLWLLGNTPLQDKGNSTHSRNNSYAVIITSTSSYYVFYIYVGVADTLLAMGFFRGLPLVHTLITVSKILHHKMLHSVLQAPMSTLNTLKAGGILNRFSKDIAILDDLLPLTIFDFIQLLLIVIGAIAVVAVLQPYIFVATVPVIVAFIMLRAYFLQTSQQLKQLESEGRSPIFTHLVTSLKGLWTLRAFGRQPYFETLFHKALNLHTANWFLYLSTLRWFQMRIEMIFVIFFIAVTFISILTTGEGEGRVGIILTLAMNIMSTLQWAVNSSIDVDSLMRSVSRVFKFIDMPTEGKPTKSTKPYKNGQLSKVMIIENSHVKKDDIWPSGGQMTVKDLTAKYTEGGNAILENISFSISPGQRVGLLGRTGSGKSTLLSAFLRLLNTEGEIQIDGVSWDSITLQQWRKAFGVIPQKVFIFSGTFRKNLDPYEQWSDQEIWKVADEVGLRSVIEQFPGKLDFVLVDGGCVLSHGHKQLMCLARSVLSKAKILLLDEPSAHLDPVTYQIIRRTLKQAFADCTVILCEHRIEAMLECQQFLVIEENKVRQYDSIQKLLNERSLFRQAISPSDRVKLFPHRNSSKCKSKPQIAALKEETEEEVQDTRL

As for `COc1ccc(C2CC(c3ccc(O)cc3O)=NN2c2ccc(S(N)(=O)=O)cc2)c(OC)c1` (stereo not shown) [Compound 7q, 4-[3-(2,4-dihydroxyphenyl)-5-(2,4-dimethoxyphenyl)-4,5-dihydro-1H-pyrazol-1-yl] benzenesulfonamide], the “Effect on functional rescue of ΔF508-CFTR by VX-809 (iodide influx)” value was “significantly increased”.
